Measured values taken from patent US7365084B2, “Cycloalkyl-substituted amino acid derivatives, processes for their preparation and their use as pharmaceuticals” (SanoFi-Aventis Deutschland GmbH, priority 2003, dated 2008).

Target: T1, human PPARalpha receptor (GR-GAL4-humanPPARalpha-LBD fusion protein) (Homo sapiens, UniProt Q07869)
T1 construct: amino acids S167-Y468; expressed in transfected cells; host or cells: HEK (human embryo kidney) cells, stably transfected with pcDNA3 carrying the fusion construct
T1 sequence (Q07869 167-468): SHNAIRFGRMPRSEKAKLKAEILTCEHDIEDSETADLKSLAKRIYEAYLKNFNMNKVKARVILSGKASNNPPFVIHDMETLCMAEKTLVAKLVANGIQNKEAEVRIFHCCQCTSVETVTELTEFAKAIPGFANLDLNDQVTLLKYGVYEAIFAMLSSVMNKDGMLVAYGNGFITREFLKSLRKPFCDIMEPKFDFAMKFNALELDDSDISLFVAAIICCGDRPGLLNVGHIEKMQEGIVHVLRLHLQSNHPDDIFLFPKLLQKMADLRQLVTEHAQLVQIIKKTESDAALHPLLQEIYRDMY
Test: Cellular PPARalpha assay (stably transfected HEK luciferase reporter cell line)
Format: cell-based
Settings: 24 h incubation
Description: (A) Determination of EC50 Values of PPAR Agonists in the Cellular PPARalpha Assay
The potency of substances which bind to human PPAR[…] and activate in an agonistic manner is analyzed using a stably transfected HEK cell line (HEK=human embryo kidney) which is referred to here as PPARalpha reporter cell line. It contains two genetic elements, a luciferase reporter element (pΔM-GAL4-Luc-Zeo) and a PPARalpha fusion protein (GR-GAL4-humanPPARα-LBD) which mediates expression of the luciferase reporter element depending on a PPARalpha ligand. The stably and constitutively expressed fusion protein GR-GAL4-humanPPARalpha-LBD binds in the cell nucleus of the PPARalpha reporter cell line via the GAL4 protein portion to the GAL4 DNA binding motifs 5′-upstream of the luciferase reporter element which is integrated in the genome of the cell line. There is only little expression of the luciferase reporter gene without addition of a PPARalpha ligand if fatty acid-depleted fetal calf serum (cs-FCS) is used in the assay. PPARα ligands bind and activate the PPARα fusion protein and thereby bring about expression of the luciferase reporter gene. The luciferase which is formed can be detected by means of chemi-luminescence via an appropriate substrate.
The PPARalpha reporter cell line was prepared in 2 stages. Firstly, the luciferase reporter element was constructed and stably transfected into HEK cells. For this purpose, five binding sites of the yeast transcription factor GAL4 (each 5′-CGGAGTACTGTCCTCCGAG-3′) (SEQ ID NO:1) were cloned in 5′-upstream of a 68 bp-long minimal MMTV promoter (Genbank Accession # V01175). The minimal MMTV promoter section contains a CCAAT box and a TATA element in order to enable efficient transcription by RNA polymerase II. The cloning and sequencing of the GAL4-MMTV construct took place in analogy to the description of Sambrook J. et. al. (Molecular cloning, Cold Spring Harbor Laboratory Press, 1989). Then the complete Photinus pyralis gene (Genbank Accession # M15077) was cloned in 3′-downstream of the GAL4-MMTV element. After sequencing, the luceriferase reporter element consisting of five GAL4 binding sites, MMTV promoter and luciferase gene was recloned into a plasmid which confers zeocin resistance in order to obtain the plasmid pΔM-GAL4-Luc-Zeo. This vector was transfected into HEK cells in accordance with the statements in Ausubel, F. M. et al. (Current protocols in molecular biology, Vol. 1-3, John Wiley & Sons, Inc., 1995). […] In a second step, the PPARalpha fusion protein (GR-GAL4-humanPPARalpha-LBD) was introduced into the stable cell clone described. For this purpose, initially the cDNA coding for the N-terminal 76 amino acids of the glucocorticoid receptor (Genbank Accession # P04150) was linked to the cDNA section coding for amino acids 1-147 of the yeast transcription factor GAL4 (Genbank Accession # P04386). The cDNA of the ligand-binding domain of the human PPARalpha receptor (amino acids S167-Y468; Genbank Accession # S74349) was cloned in at the 3′-end of this GR-GAL4 construct. The fusion construct prepared in this way (GR-GAL4-humanPPARalpha-LBD) was recloned into the plasmid pcDNA3 (from Invitrogen) in order to enable constitutive expression therein by the cytomegalovirus promoter. This plasmid was linearized with a restriction endonuclease and stably transfected into the previously described cell clone containing the luciferase reporter element. The finished PPARalpha reporter cell line which contains a luciferase reporter element and constitutively expresses the PPARalpha fusion protein (GR-GAL4-human PPARalpha-LBD) was isolated by selection with zeocin (0.5 mg/ml) and G418 (0.5 mg/ml).
The activity of PPARalpha agonists is determined in a 3-day assay which is described below: […]

| EC50 | Compound |
| --- | --- |
| 29 nM | Cc1ccc(-c2nc(COC3CCCC(C(=O)NC(C)(C)C(=O)O)C3)c(C)o2)cc1 (racemic) [Example 5, 2-Methyl-2-{[(1R,3S)/(1S, 3R)-3-(5-methyl-2-p-tolyloxazol-4-ylmethoxy)-cyclohexanecarbonyl]amino}propionic acid] |
| 99 nM | Cc1ccc(-c2nc(COC3CCCC(C(=O)N[C@@H](C)C(=O)O)C3)c(C)o2)cc1 (stereo partly drawn) [Example 3, (S)-2-{[(1R,3S)/(1S,3R)-3-(5-Methyl-2-p-tolyloxazol-4-ylmethoxy)cyclohexanecarbonyl]amino}propionic acid] |

Second part, the compound before the results:

| Compound | EC50 |
| --- | --- |
| Cc1ccc(-c2nc(COC3CCCC(C(=O)NC4(C(=O)O)CCCC4)C3)c(C)o2)cc1 (racemic) [Example 25, 1-{[(1R,3S)/(1S,3R)-3-(5-Methyl-2-p-tolyloxazol-4-ylmethoxy)cyclohexanecarbonyl]amino}cyclopentanecarboxylic acid] | 7.2 nM |
| Cc1oc(-c2cccc(C(F)(F)F)c2)nc1COC1CCCC(C(=O)N[C@H](C(=O)O)C(C)C)C1 (stereo partly drawn) [Example 11, (S)-3-Methyl-2-({(1R,3S)/(1S,3R)-3-[5-methyl-2-(3-trifluoromethylphenyl)-oxazol-4-ylmethoxy]cyclohexanecarbonyl}amino)butyric acid] | 15 nM |
| CCc1oc(-c2ccc(C)cc2)nc1CO[C@H]1CCC[C@@H](C(=O)N[C@H](C(=O)O)C(C)C)C1 [Example 21a, (S)-3-methyl-2-{[(1R,3S)-3-(5-ethyl-2-p-tolyloxazol-4-ylmethoxy)cyclohexanecarbonyl]amino}butyric acid] | 5 nM |
| CC(C)c1oc(-c2ccc(C(F)(F)F)cc2)nc1COCC1CCCC(C(=O)N[C@H](C(=O)O)C(C)C)C1 (some centres unmarked) [Example 43] | 32 nM |
| Cc1oc(-c2cccc(C(F)(F)F)c2)nc1COCC1CCCC(C(=O)N[C@H](C(=O)O)C(C)C)C1 (some centres unmarked) [Example 44] | 4.5 nM |
| CCc1oc(-c2ccc(C(F)(F)F)cc2)nc1COCC1CCCC(C(=O)N[C@H](C(=O)O)C(C)C)C1 (some centres unmarked) [Example 50] | 1.2 nM |
